As a reminder, the EC50 is the concentration at which the effect is half-maximal.

This assay has as its target T1, human RXFP1 (Homo sapiens, UniProt Q9HBX9).
T1 construct: expressed in transfected cells
T1 sequence (Q9HBX9 1-757): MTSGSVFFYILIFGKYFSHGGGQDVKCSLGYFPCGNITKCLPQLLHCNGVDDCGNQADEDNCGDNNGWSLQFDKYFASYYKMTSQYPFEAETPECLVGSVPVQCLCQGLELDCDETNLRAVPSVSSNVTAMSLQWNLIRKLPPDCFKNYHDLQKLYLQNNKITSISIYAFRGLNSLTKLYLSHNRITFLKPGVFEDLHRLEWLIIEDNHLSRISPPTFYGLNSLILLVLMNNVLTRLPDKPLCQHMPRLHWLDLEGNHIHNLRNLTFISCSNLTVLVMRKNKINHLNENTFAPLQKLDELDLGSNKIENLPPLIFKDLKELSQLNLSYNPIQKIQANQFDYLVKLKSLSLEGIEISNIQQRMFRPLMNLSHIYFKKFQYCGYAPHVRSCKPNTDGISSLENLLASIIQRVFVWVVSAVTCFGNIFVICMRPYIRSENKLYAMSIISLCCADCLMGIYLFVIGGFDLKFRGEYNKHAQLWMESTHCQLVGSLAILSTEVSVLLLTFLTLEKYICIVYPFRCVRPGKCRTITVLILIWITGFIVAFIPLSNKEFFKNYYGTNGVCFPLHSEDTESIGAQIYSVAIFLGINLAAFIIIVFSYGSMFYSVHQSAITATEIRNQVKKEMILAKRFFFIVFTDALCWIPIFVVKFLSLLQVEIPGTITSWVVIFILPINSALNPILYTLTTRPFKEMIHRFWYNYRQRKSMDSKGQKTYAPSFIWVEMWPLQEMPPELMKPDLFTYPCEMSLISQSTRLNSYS
Kind of assay: hRXFP1 HEK293 cAMP assay (HTRF). Conditions: HEK293 cells stably expressing human RXFP1, 30 min at room temperature. It counts as cell-based. Put shortly:
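Intracellular cAMP was read by HTRF, with potency fitted to a 4-parameter logistic curve. Compound exposure (0.010 nM–50 μM final, 2% DMSO) lasted 30 min at room temperature. Cells were hRXFP1-HEK293 at 1500 per well in IBMX-containing (0.5 mM) HEPES-buffered HBSS.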
Background: cAMP levels reflect the balance of adenylyl cyclase and phosphodiesterase activity.
In turn, `COc1c(F)cc(C(=O)NCC2(S(C)(=O)=O)CC2)cc1C(=O)N[C@H]1[C@@H](C(=O)Nc2ccc(F)c(C(F)(F)F)c2)[C@H]2CC[C@@H]1/C2=C\C1CC(F)(F)C1` [Example 374, N3-[(1R,2R,3S,4R,7Z)-7-[(3,3-difluorocyclobutyl)methylidene]-3-{[4-fluoro-3-(trifluoromethyl)phenyl]carbamoyl}bicyclo[2.2.1]heptan-2-yl]-5-fluoro-N1-[(1-methanesulfonyl-cyclopropyl)methyl]-4-methoxybenzene-1,3-dicarboxamide] had an EC50 of 0.0069 µM.

`COc1ccc(C(=O)NCC(C)(C)C)cc1C(=O)N[C@H]1[C@@H](C(=O)Nc2ccc(F)c(C(F)(F)F)c2)[C@H]2CC[C@@H]1/C2=C\C1CC1` [Example 238, N3-[(1R,2R,3S,4R,7Z)-7-(cyclopropyl-methylidene)-3-{[4-fluoro-3-(trifluoromethyl)phenyl]carbamoyl}bicyclo[2.2.1]heptan-2-yl]-N1-(2,2-dimethylpropyl)-4-methoxybenzene-1,3-dicarboxamide]: the concentration giving a half-maximal response (EC50) came out at 0.014 µM. For “4-(3-{[(2R,3S,7Z)- 3-{[4-fluoro-3- (trifluoromethyl)phe- nyl]carbamoyl}-7- (2,2,2- trifluoroethylidene)bi- cyclo[2.2.1]heptan- 2-yl]carbamoyl}-4- methoxyphenyl)cyclo- hexyl N- phenylcarbamate [Example 54]” the value was 0.158 µM.

`COc1ccc(CCCCCC#N)cc1C(=O)NC1C2CCC(/C2=C/C(F)(F)F)[C@@H]1C(=O)Nc1ccc(F)c(C(F)(F)F)c1` (stereo partly drawn) [Example 181, (7Z)-3-[5-(5-cyanopentyl)-2-methoxybenzamido]-N-[4-fluoro-3-(trifluoromethyl)phe-nyl]-7-(2,2,2-trifluoroethylidene)bi-cyclo[2.2.1]heptane-2-carboxamide] came in with a half-maximal effective concentration (EC50) of 0.103 µM.

The compound `COc1ccc(CO)cc1C(=O)N[C@H]1[C@@H](C(=O)Nc2ccc(F)c(C(F)(F)F)c2)[C@H]2CC[C@@H]1/C2=C\C(F)(F)F` [Example 10, (1R,2S,3R,4R,Z)—N-(4-fluoro-3-(trifluoromethyl)phenyl)-3-(5-(hydroxymethyl)-2-methoxybenzamido)-7-(2,2,2-trifluoroethylidene) bicyclo[2.2.1]heptane-2-carboxamide] returned an EC50 of 0.962 µM.

`COc1ccc(C(=O)N2CC[C@@H](O)C2)cc1C(=O)N[C@H]1[C@@H](C(=O)Nc2ccc(F)c(C(F)(F)F)c2)[C@H]2CC[C@@H]1/C2=C\C1CC1` [Example 244, (1R,2S,3R,4R,7Z)-7-(cyclopropyl-methylidene)-N-[4-fluoro-3-(trifluoromethyl)phenyl]-3-{5-[(3R)-3-hydroxypyrrolidine-1-carbonyl]-2-methoxybenzamido} bicyclo[2.2.1]heptane-2-carboxamide] returned an EC50 of 0.011 µM. For “(1R,4R,7Z)-7- (cyclopentyl- methylidene)- N-[4-fluoro-3- (trifluoromethyl) phenyl]-3-[5-(3- hydroxy-3- methylbutyl)-2- methoxybenzamido] bicyclo[2.2.1] heptane-2- carboxamide [Example 268]” the value was 0.0296 µM. `COc1ccc(COc2ccccc2)cc1C(=O)N[C@@H]1C2CCC(/C2=C/C(F)(F)F)[C@@H]1C(=O)Nc1ccc(F)c(C(F)(F)F)c1` (stereo partly drawn) [Example 20, (2S,3R,7Z)-N-[4-fluoro-3-(trifluoromethyl)phe-nyl]-3-[2-methoxy-5-(phenoxymethyl)ben-zamido]-7-(2,2,2-trifluoroethylidene)bi-cyclo[2.2.1]heptane-2-carboxamide] displayed an EC50 of 0.142 µM. For `COc1c(F)cc(C(=O)NCC2(S(C)(=O)=O)CC2)cc1C(=O)N[C@H]1[C@@H](C(=O)Nc2ccc(F)c(C(F)(F)F)c2)[C@H]2CC[C@@H]1/C2=C\C1CC1` [Example 366, N3-[(1R,2R,3S,4R,7Z)-7-(cyclopropyl-methylidene)-3-{[4-fluoro 3-(trifluoromethyl)phenyl]carbamoyl}bicyclo[2.2.1]heptan-2-yl]-5-fluoro-N1-[(1-methanesulfonyl-cyclopropyl)methyl]-4-methoxybenzene-1,3-dicarboxamide] the value was 0.0031 µM.
